Reference: patent publication US11879145B2, “Reagents and methods for replication, transcription, and translation in semi-synthetic organisms” (The Scripps Research Institute, priority 2019, dated 2024)

System: sfGFP^151(AXC)
Test: Optimization of unnatural ribonucleotide triphosphate concentrations (sfGFP fluorescence and protein shift)
Assay type: cell-based, E. coli
Description: Examples 1A, 1B, and 2 identified dCNMO-dTPT3 as a competent UBP for the storage of information, and TAT1TP and NaMTP or 5FMTP as competent ribonucleoside triphosphates for its retrieval. Upon transformation with the same plasmids used above, 10 μM dTPT3TP and 25 μM dCNMOTP were provided in the growth media, which was then also supplemented with TAT1TP at concentrations ranging from 100 μM to 12.5 μM, and either NaMTP or 5FMTP at concentrations ranging from 200 μM to 12.5 μM, all in series of 2-fold dilutions, and after the addition of 1 mM AzK, the cells were induced to express sfGFP. […] In both cases, fluorescence was higher at lower concentrations of NaMTP or 5FMTP (due to increased production of contaminating natural sfGFP, see below). Additionally, cells generally produced higher fluorescence at higher concentrations of TAT1TP. […] Protein production was again quantified via the gel shift assay (FIG. 6C and FIG. 6D). Generally, as the concentration of NaMTP decreased below 200 μM, incrementally lower fidelity of AzK incorporation into sfGFP was observed, while with use of 5FMTP this reduction in fidelity was only observed below a concentration of 50 μM. Clearly lower concentrations of 5FMTP can be used without compromising fidelity. Cells provided with a high concentration of 5FMTP (≥50 µM) produced high protein shifts at all concentrations of TAT1TP explored (100 μM, 50 μM, 25 μM, or 12.5 μM).
Optimization of in vivo Translation Conditions. An overnight culture of the SSO strain ML2 carrying the pGEX-MbPylRS TetR plasmid was grown in 2×YT supplemented with 50 mM potassium phosphate, […] chloramphenicol and 100 μg/mL carbenicillin (herein referred to in this section as “media”), then diluted back to an OD600 of 0.03 in the same media and grown to an OD600 of 0.4-0.6. The culture was then chilled with shaking over ice-water for 15 min then pelleted by centrifugation at 3,200×g for 10 min. Cells were then resuspended and washed with ice-cold ddH2O twice then resuspended in ice-cold ddH2O to an OD600 of 55-65. The electrocompetent cells (50 μL) and ˜1 ng of Golden Gate assembled plasmid with the UBP within the sfGFP and tRNAPyl genes (see Golden Gate Assembly of Plasmids) were transferred to a pre-chilled electroporation cuvette (0.2-cm-gap), then electroporated (Gene Pulser II; Bio-Rad) according to manufacturer's recommendations (voltage […], capacitor 2.5 μF, resistor 200Ω), and then immediately diluted with 950 μL of media. […] The culture was monitored for cell growth (Envision 2103 Multilabel Plate Reader with a 590/20 nm filter) and then collected at an OD600˜1.0. […]

## COc1cc(C)c(F)cc1[C@@H]1O[C@H](COP(=O)(O)OP(=O)(O)OP(=O)(O)O)[C@@H](O)[C@H]1O [Compound 5FMTP]
5FMTP and TAT1TP pair
  Concentration for combined optimization of protein purity and yield: 50 µM
With TAT1TP 12.5-100 μM
  XTP concentration below which lower fidelity of AzK incorporation into sfGFP was observed: 50 µM
